In patent US6046190A, “Hydroxyethylamino sulphonamides useful as retroviral protease inhibitors” (G.D. Searle & Co., priority 1996, dated 2000):
Like-named read-outs stand apart in the source and are kept apart here.

Columns and labels:
HIV-1 in CEM cells = assay: HIV inhibition assay of acutely infected CEM cells (tetrazolium/MTT colorimetric), antiviral efficacy; format: cell-based; conditions: Human immunodeficiency virus 1, CCRF-CEM, 168 h
Excerpt: (§1) Methods, 20, 309-321 (1988).
(§2) [table 42: the next 8 blocks are its lines as printed, fixed-width]

[1] = Intrinsic toxicity of test compound in uninfected CEM cells (MTT); conditions: human
Excerpt: as §1, §2

HIV protease = target: T1, HIV protease (Human immunodeficiency virus type 1 group M subtype B, UniProt P04585); assay: biochemical; format: biochemical
T1 construct: HIV protease is diluted in the assay buffer to a final enzyme concentration of 12.3 nanomolar, based on a molecular weight of 10,780
Description: The enzyme method is described below. […] The positive control is MVT-101 (Miller, M. et al, Science, 246, 1149 (1989)]. The assay conditions are as follows:
20 mM sodium phosphate, pH 6.4
The above described substrate is dissolved in DMSO, then diluted 10 fold in assay buffer. Final substrate concentration in the assay is 80 μM.
The final concentration of DMSO is 14% and the final concentration of glycerol is 18%. The test compound is dissolved in DMSO and diluted in DMSO to 10× the test concentration; 10 μl of the enzyme preparation is added, the materials mixed and then the mixture is incubated at ambient temperature for 15 minutes. The enzyme reaction is initiated by the addition of 40μl of substrate. The increase in fluorescence is monitored at 4 time points (0, 8, 16 and 24 minutes) at ambient temperature. Each assay is carried out in duplicate wells.

[2] = Table 21, CEM cells, 1000 TCID50 HIV-1, 7 days, read-out: EC50
[3] = Table 21, above-described enzyme assay
[4] = Table 19B, calculated IC50, enzyme 12.3 nanomolar, substrate 80 μM, pH 6.4
[5] = Table 20, calculated IC50, enzyme 12.3 nanomolar, substrate 80 μM, pH 6.4

| SMILES | EC50 (HIV-1 in CEM cells) [µM] | EC50 (HIV-1 in CEM cells; [2]) [µM] | other results |
| --- | --- | --- | --- |
| CC(C)CCN(C[C@@H](O)[C@H](Cc1ccccc1)NC(=O)OCc1ccccc1)S(=O)(=O)c1ccccc1 [Example 1] | 0.055 |  | CC50 at 168 h [1]: 0.027 µM |
| CC(C)CCN(C[C@@H](O)[C@H](Cc1ccccc1)NC(=O)[C@H](CC(N)=O)NC(=O)c1ccc2ccccc2n1)S(=O)(=O)c1ccccc1 [Example 2] |  | 0.005 | CC50 at 168 h [1]: 0.203 µM |
| COc1ccc(COC(=O)NC[C@@H](C)C(=O)N[C@@H](Cc2ccccc2)[C@H](O)CN(CCC(C)C)S(=O)(=O)c2ccccc2)cc1 [Example 3] | 0.011 |  | CC50 at 168 h [1]: 0.78 µM |
| CC(C)CCN(C[C@@H](O)[C@H](Cc1ccccc1)NC(=O)[C@H](CC(N)=O)NC(=O)c1ccc2ccccc2n1)S(C)(=O)=O [Example 4] | 0.064 |  | CC50 at 168 h [1]: 0.028 µM |
| O=C(N[C@@H](Cc1ccccc1)[C@H](O)CN(C1CCCCC1)S(=O)(=O)c1ccccc1)OCc1ccccc1 [Example 5] | 0.088 |  | CC50 at 168 h [1]: 0.011 µM |
| COCCCN(C[C@@H](O)[C@H](Cc1ccccc1)NC(=O)OCc1ccccc1)S(=O)(=O)c1ccccc1 [Example 9] | 0.398 |  | CC50 at 168 h [1]: 0.015 µM |
| CSCCCN(C[C@@H](O)[C@H](Cc1ccccc1)NC(=O)OCc1ccccc1)S(=O)(=O)c1ccccc1 [Example 10] | 0.7 |  | CC50 at 168 h [1]: 0.012 µM |
| CC(C)CCN(C[C@@H](O)[C@H](Cc1ccccc1)NC(=O)[C@@H](NC(=O)CN(C)C)C(C)(C)C)S(=O)(=O)c1ccccc1 [Example 11] | 0.011 |  | CC50 at 168 h [1]: 0.054 µM |
| CC(C)CCN(C[C@@H](O)[C@H](Cc1ccccc1)NC(=O)[C@H](Cc1cnc[nH]1)NC(=O)c1ccc2ccccc2n1)S(=O)(=O)c1ccccc1 [Example 12] | 0.012 |  | CC50 at 168 h [1]: 0.0075 µM |
| CCC(C)[C@H](NC(=O)CN(C)C)C(=O)N[C@@H](Cc1ccccc1)[C@H](O)CN(CC(C)C)S(=O)(=O)c1ccc(OC)cc1 (some centres unmarked) [Example 13] | < 0.016 |  |  |
| CCC(C)[C@H](NC(=O)CNC)C(=O)N[C@@H](Cc1ccccc1)[C@H](O)CN(CCC(C)C)S(=O)(=O)c1ccccc1 (some centres unmarked) [Example 15] | 0.038 |  |  |
| CC(C)CN(C[C@@H](O)[C@H](Cc1ccccc1)NC(=O)OCc1cccnc1)S(=O)(=O)c1ccccc1 [Example 16] | 0.08 |  | CC50 at 168 h [1]: 62 µM |
| CC(C)CN(C[C@@H](O)[C@H](Cc1ccccc1)NC(=O)OCc1cccnc1)S(=O)(=O)c1ccc(Cl)cc1 [Example 18] | 0.154 |  |  |
| CC(C)CN(C[C@@H](O)[C@H](Cc1ccccc1)NC(=O)OCc1cccnc1)S(=O)(=O)c1ccc([N+](=O)[O-])cc1 [Example 19] |  | 0.377 |  |
| CC(C)CN(C[C@@H](O)[C@H](Cc1ccccc1)NC(=O)OCc1cccnc1)S(=O)(=O)c1ccc(O)cc1 [Example 20] |  | 0.013 |  |
| COc1ccc(S(=O)(=O)N(CC(C)C)C[C@@H](O)[C@H](Cc2ccccc2)NC(=O)OCc2cncnc2)cc1 [Example 23] |  | 0.008 |  |
| COc1ccc(S(=O)(=O)N(CC(C)C)C[C@@H](O)[C@H](Cc2ccccc2)NC(=O)c2ccncc2)cc1 [Example 33] | 0.068 |  |  |
| COc1ccc(S(=O)(=O)N(CC(C)C)C[C@@H](O)[C@H](Cc2ccccc2)NC(=O)c2cccnc2)cc1 [Example 34] | 0.188 |  |  |
| COc1ccc(S(=O)(=O)N(CC(C)C)C[C@@H](O)[C@H](Cc2ccccc2)NC(=O)c2cccc(N(C)C)c2C)cc1 [Example 36] |  | 0.898 |  |
| Cc1ccccc1C(=O)N[C@@H](Cc1ccccc1)[C@H](O)CN(CC(C)C)S(=O)(=O)c1ccc(O)cc1 [Example 37] |  | < 0.02 |  |
| COc1ccc(S(=O)(=O)N(CC(C)C)C[C@@H](O)[C@H](Cc2ccccc2)NC(=O)OCc2ccc(N)nc2)cc1 [Example 38] |  | 1.1 |  |
| COc1ccc(S(=O)(=O)N(CC(C)C)C[C@@H](O)[C@H](Cc2ccccc2)NC(=O)OCc2ccc(O)nc2)cc1 [Example 39] |  | 0.269 |  |
| CC(C)CN(C[C@@H](O)[C@H](Cc1ccccc1)NC(=O)OCc1cncnc1)S(=O)(=O)c1ccc(O)cc1 [Example 41] | 0.011 |  |  |
| CC(C)CN(C[C@@H](O)[C@H](Cc1ccccc1)NC(=O)O[C@H]1CCSC1)S(=O)(=O)c1ccc(O)cc1 [Example 42] |  | < 0.02 |  |
| CC(C)CN(C[C@@H](O)[C@H](Cc1ccccc1)NC(=O)O[C@H]1CCS(=O)(=O)C1)S(=O)(=O)c1ccc(O)cc1 [Example 43] |  | 0.063 |  |
| COc1ccc(S(=O)(=O)N(CC(C)C)C[C@@H](O)[C@H](Cc2ccccc2)NC(=O)O[C@H]2CCOC2)cc1 [Example 44] |  | 0.008 |  |
| CC(C)CN(C[C@@H](O)[C@H](Cc1ccccc1)NC(=O)O[C@H]1CCOC1)S(=O)(=O)c1ccc(O)cc1 [Example 45] | 0.005 |  |  |
| COc1ccc(S(=O)(=O)N(CC(C)C)C[C@@H](O)[C@H](Cc2ccccc2)NC(=O)O[C@H]2CCSC2)cc1 [Example 46] |  | < 0.02 |  |

| SMILES | EC50 (HIV-1 in CEM cells) [µM] | EC50 (HIV-1 in CEM cells; [2]) [µM] | other results |
| --- | --- | --- | --- |
| COc1ccc(S(=O)(=O)N(CC(C)C)C[C@@H](O)[C@H](Cc2ccccc2)NC(=O)c2cccc([N+](=O)[O-])c2C)cc1 [Example 48] |  | 0.21 |  |
| COc1ccc(S(=O)(=O)N(CC(C)C)C[C@@H](O)[C@H](Cc2ccccc2)NC(=O)c2cccc(N)c2C)cc1 [Example 49] |  | < 0.02 | IC50 (HIV protease; [3]): 0.006 µM |
| COc1ccc(S(=O)(=O)N(CC(C)C)C[C@@H](O)[C@H](Cc2ccccc2)NC(=O)c2ccc(N)cc2C)cc1 [Example 51] |  | < 0.02 | IC50 (HIV protease; [3]): 0.009 µM |
| COc1ccc(S(=O)(=O)N(CC(C)C)C[C@@H](O)[C@H](Cc2ccccc2)NC(=O)c2ccc(N(C)C)cc2C)cc1 [Example 52] |  |  | IC50 (HIV protease; [3]): > 0.1 µM |
| COc1ccc(S(=O)(=O)N(CC(C)C)C[C@@H](O)[C@H](Cc2ccccc2)NC(=O)c2cc(N)ccc2C)cc1 [Example 54] |  |  | IC50 (HIV protease; [3]): 0.01 µM |
| COc1ccc(S(=O)(=O)N(CC(C)C)C[C@@H](O)[C@H](Cc2ccccc2)NC(=O)OCc2cncs2)cc1 [Example 56] |  | 0.04 |  |
| CC(C)CN(C[C@@H](O)[C@H](Cc1ccccc1)NC(=O)OCc1cncs1)S(=O)(=O)c1ccc(O)cc1 [Example 57] |  | < 0.02 |  |
| COc1ccc(S(=O)(=O)N(CC(C)C)C[C@@H](O)[C@H](Cc2ccccc2)NC(=O)OCc2ccoc2)cc1 [Example 58] |  | 0.07 |  |
| COc1ccc(S(=O)(=O)N(CC(C)C)C[C@@H](O)[C@H](Cc2ccccc2)NC(=O)c2cccc(O)c2C)cc1 [Example 59] |  | 0.022 | IC50 (HIV protease; [3]): 0.003 µM |
| CC(C)CN(C[C@@H](O)[C@H](Cc1ccccc1)NC(=O)OCc1ccoc1)S(=O)(=O)c1ccc(N)cc1 [Example 60] |  | 0.06 |  |
| CC(C)CN(C[C@@H](O)[C@H](Cc1ccccc1)NC(=O)OCc1cccnc1)S(=O)(=O)c1ccc2c(c1)OCO2 [Example 69] | 0.068 |  |  |
| CC(C)CN(C[C@@H](O)[C@H](Cc1ccccc1)NC(=O)OCc1cncs1)S(=O)(=O)c1ccc2c(c1)OCO2 [Example 70] |  | 0.03 |  |
| Cc1c(O)cccc1C(=O)N[C@@H](Cc1ccccc1)[C@H](O)CN(CC(C)C)S(=O)(=O)c1ccc2c(c1)OCO2 [Example 73] |  | 0.022 |  |
| CC(C)CCN(C[C@@H](O)[C@H](Cc1ccccc1)NC(=O)C(NC(=O)OCc1ccccc1)C(C)(C)C)S(C)(=O)=O (some centres unmarked) [Table 3 Entry 1] |  |  | IC50 (HIV protease; [4]): 0.081 µM |
| CNCC(=O)NC(C(=O)N[C@@H](Cc1ccccc1)[C@H](O)CN(CCC(C)C)S(=O)(=O)c1ccccc1)C(C)(C)C (some centres unmarked) [Table 3 Entry 6] |  |  | IC50 (HIV protease; [4]): 0.0018 µM |
| CC(C)CCN(C[C@@H](O)[C@H](Cc1ccccc1)NC(=O)C(NC(=O)CN(C)C)C(C)(C)C)S(=O)(=O)c1ccccc1 (some centres unmarked) [Table 3 Entry 8] |  |  | IC50 (HIV protease; [4]): 0.003 µM |
| COc1ccc(S(=O)(=O)N(CC(C)C)C[C@@H](O)[C@H](Cc2ccccc2)NC(=O)C(NC(=O)CN(C)C)C(C)(C)C)cc1 (some centres unmarked) [Table 3 Entry 10] |  |  | IC50 (HIV protease; [4]): 0.0025 µM |
| COc1ccc(S(=O)(=O)N(CC(C)C)C[C@@H](O)[C@H](Cc2ccccc2)NC(=O)C2CCc3ccccc3C2)cc1 (some centres unmarked) [Table 5A Entry 4] |  |  | IC50 (HIV protease): 0.01 µM |
| COc1ccc(S(=O)(=O)N(CC(C)C)C[C@@H](O)[C@H](Cc2ccccc2)NC(=O)c2ccc(C)cc2C)cc1 [Table 5A Entry 6] |  |  | IC50 (HIV protease): 0.023 µM |
| COc1ccc(S(=O)(=O)N(CC(C)C)CC(O)C(Cc2ccccc2)NC(=O)c2cccnc2)cc1 (centres unmarked) [Table 5A Entry 9] |  |  | IC50 (HIV protease; [5]): 0.067 µM |
| COc1ccc(S(=O)(=O)N(CC(C)C)CC(O)C(Cc2ccccc2)NC(=O)c2ccncc2)cc1 (centres unmarked) [Table 5A Entry 11] |  |  | IC50 (HIV protease; [5]): 0.018 µM |
| COc1ccc(S(=O)(=O)N(CC(C)C)CC(O)C(Cc2ccccc2)NC(=O)c2ccccc2Cl)cc1 (centres unmarked) [Table 5A Entry 12] |  |  | IC50 (HIV protease; [5]): 0.006 µM |
| COc1ccc(S(=O)(=O)N(CC(C)C)CC(O)C(Cc2ccccc2)NC(=O)c2ccccc2C(C)C)cc1 (centres unmarked) [Table 5A Entry 14] |  |  | IC50 (HIV protease; [5]): 0.049 µM |
| COc1ccc(S(=O)(=O)N(CC(C)C)CC(O)C(Cc2ccccc2)NC(=O)c2ccccc2)cc1 (centres unmarked) [Table 5A Entry 25] |  |  | IC50 (HIV protease; [5]): 0.014 µM |
| COc1ccc(S(=O)(=O)N(CC(C)C)CC(O)C(Cc2ccccc2)NC(=O)c2ccc(C)cc2)cc1 (centres unmarked) [Table 5A Entry 28] |  |  | IC50 (HIV protease; [5]): 0.015 µM |
| COc1ccc(S(=O)(=O)N(CC(C)C)C[C@@H](O)[C@H](Cc2ccccc2)NC(=O)c2ccccc2OC)cc1 [Table 5A Entry 29] |  |  | IC50 (HIV protease; [5]): 0.19 µM |
| COc1ccc(S(=O)(=O)N(CC(C)C)C[C@@H](O)[C@H](Cc2ccccc2)NC(=O)c2cccc(OC)c2)cc1 [Table 5A Entry 30] |  |  | IC50 (HIV protease): 0.03 µM |
